These results are taken from patent US11723947B2, “Anti-senescence compounds and uses thereof” (Erasmus University Medical Center Rotterdam, priority 2015, dated 2023).

The subject of data set [1] is Senescent and control IMR90. The note with it: for effect on effectiveness of FOXO4 DRI in lowering senescent cell viability: viability measured one day earlier; for effect of pan-caspase inhibitor on the FOXO4 DRI effect on senescent cell viability: 20 μM inhibitor, 25 μM FOXO4 DRI, senescent IMR90, 6 days. Here is the method: The selectivity index (S.I.) for the EC50 values was determined after […] (GraphPad Prism) of the curves. […] Real-time cell density was measured using an xCELLigence detection system (ACEA Biosciences). Prior to the start of the measurement 50 μL DMEM 10% FCS was added to each well of an E-plate view 16 (Roche) to determine background signal. Non-senescent (2000 cells per well) and senescent (5000 cells/well) IMR90 fibroblasts were then plated in 150 μl medium. 16 hours later the E-plate was placed in the xCELLigence reader and the cell density was recorded every 30 minutes. […] Measurements continued for the indicated time-points. […] Experiment as in FIG. 2C, but with the indicated peptides. […] Cells were plated in 4-well Poly-L-Lysine coated glass bottom 35 mm dishes (D141410; Matsumi, Japan) and incubated with NucView488 Caspase-3 (4440; Essen Bioscience). […] 8h after addition the real-time imaging was initiated and every 30 min a grid of 3×3 pictures was imaged. The imaging continued for another 6 days and the images were concatenated using Zen imaging software. […] After 6 days cell viability was determined as in FIG. 2C). […] Experiment as in FIG. 2C, but according to the indicated treatment plan. Instead of one single dose, three doses were given (one day in between) of ⅓ that concentration each time. […] Left: Experiment as in FIG. 2C, but on cells pretreated once daily for two days with IL-1α Receptor Antagonist (RA), which blocks IL-1α/β signaling, recombinant IL-6 and recombinant IL-1α/β. […] Right: Similar experiment as in the left panel, except viability measured one day earlier. […] In senescent cells p53 signaling causes upregulation of the cell-cycle arrest and pro-survival protein p21Cip1. […] Experiment as in FIG. 2K. […] Experiment as in FIG. 2c, but with control and senescent IMR90 stable transduced with shRNAs against p53 or a control shRNA (shGFP).
A) Control IMR90 and IMR90 induced to senesce through 10Gy IR were plated in triplicate for each condition in a 96-well plate. […] After 6 days viability was determined through AqeousOne celltiter assay (Promega) according to the manufacturer's instructions.
Non-senescent (=“normal”, proliferating) IMR90 cells (ATCC #CCL-186, a diploid primary human fibroblast adherent cell line derived from fetal lung tissue) were irradiated with 10Gy Gamma-IR (IR=irradiation). After 7 days these cells are senescent and can be used for experiments comparing them to their non-irradiated (=non-senescent) counterparts. Senescent and non-senescent IMR90 fibroblasts were plated for longitudinal cell density measurement using the xCELLigence system (ACEA Biosciences, Inc., San Diego, Calif.).
5000 senescent (obtained as described above) and 2000 non-senescent IMR90 fibroblasts were plated in 96-well plates incubated with concentrations of NQDI between 0-20 μM and after 6 days cell viability was determined by AqueousOne CellTiter (MTT) assay according to the manufacturer's instructions.
5000 senescent (obtained as described above) and 2000 non-senescent IMR90 fibroblasts were plated in 96-well plates incubated with concentrations of R406, ranging from 16, 32, 64 to 128 nM and after 6 days cell viability was determined by AqueousOne CellTiter (MTT) assay according to the manufacturer's instructions.
Normal human IMR90 fibroblasts were exposed to 10 Gy Ionizing Radiation or treated 3× (bidaily) with 0.5 μM Doxorubicin. Seven days later they were processed for SA-β-Gal staining to visualize senescent cells. […] DAPI was used as a counterstain to visualize nuclei. […] After 6 days the cell viability was determined using an AqueousOne Celltiter (MTT) assay according to the manufacturer's instructions.

The test system of data set [2] is IMR90 cells. The data set can be described thus: Senescence markers in Doxorubicin-treated IMR90 in vitro. The format is cell-based, human. Here is the method: IMR90 cells were exposed twice to 0.5 μM Doxorubicin with one day in between. SA-β-GAL activity was determined 7 days later. […] This figure complements FIG. 4A+B by showing that next to the senescence markers SA-β-Gal and p16^ink4a also the SASP marker IL-6 is elevated by Doxorubicin. […] Mice were i.p. injected with 10 mg/kg Doxorubicin and analyzed for RLUC on the indicated time-points. Changes in RLUC intensity for 5 animals are plotted for the indicated timepoints after injection. […] Following one dose of Doxorubicin (10 mg/kg, i.p.) the mice were treated with FOXO4 DRI (n=6; 4×10 mg/kg i.v.) or PBS (n=4; 4× Mock) and processed for RLUC imaging after 14 d. […] Mice treated as indicated in FIG. 4F were analyzed for Bioluminescence. […] H) To improve the window for measuring healthspan changes, the treatment regime from FIG. 4F) was extended with one additional dose of Doxorubicin and milder FOXO4 DRI treatment. Following two doses of Doxorubicin (both 10 mg/kg i.p.) the mice (n=3 each group) were subsequentially treated with PBS or FOXO4 DRI (3×5 mg/kg, 1 d in between) and 14 d later analyzed for changes in healthspan. […] Post-mortem analysis of liver sections from mice (n=2 each group) treated as in FIG. 4H and stained for FOXO4. The number of FOXO4 foci was objectively quantified using ImageJ. […] Liver sections from the experiment in FIG. 4I were stained for IL-6. […] Mice treated as depicted in FIG. 4H (n=9 for PBS, n=11 for FOXO4 DRI) were analyzed for total body weight before and after Doxorubicin-exposure followed by treatment with PBS or FOXO4 DRI. The ratio was plotted. […] Experiment as in FIG. 4H. n=3 animals per group.
DAPI was used as a counterstain to visualize nuclei. […] The histograms show % viability for the indicated conditions (.

Data set [3] has as its system p16^ink4a-positive senescence. The experiment in a line: Doxorubicin-induced senescence in p16::3MR mice (RLUC bioluminescence, SA-beta-GAL). The format is in vivo, mouse. Here is the method:
IMR90 cells were exposed twice to 0.5 μM Doxorubicin with one day in between. SA-β-GAL activity was determined 7 days later. […] This figure complements FIG. 4A+B by showing that next to the senescence markers SA-β-Gal and p16^ink4a also the SASP marker IL-6 is elevated by Doxorubicin. […] Mice were i.p. injected with 10 mg/kg Doxorubicin and analyzed for RLUC on the indicated time-points. Changes in RLUC intensity for 5 animals are plotted for the indicated timepoints after injection. […] Following one dose of Doxorubicin (10 mg/kg, i.p.) the mice were treated with FOXO4 DRI (n=6; 4×10 mg/kg i.v.) or PBS (n=4; 4× Mock) and processed for RLUC imaging after 14 d. […] Mice treated as indicated in FIG. 4F were analyzed for Bioluminescence. […] H) To improve the window for measuring healthspan changes, the treatment regime from FIG. 4F) was extended with one additional dose of Doxorubicin and milder FOXO4 DRI treatment. Following two doses of Doxorubicin (both 10 mg/kg i.p.) the mice (n=3 each group) were subsequentially treated with PBS or FOXO4 DRI (3×5 mg/kg, 1 d in between) and 14 d later analyzed for changes in healthspan. […] Post-mortem analysis of liver sections from mice (n=2 each group) treated as in FIG. 4H and stained for FOXO4. The number of FOXO4 foci was objectively quantified using ImageJ. […] Mice treated as depicted in FIG. 4H (n=9 for PBS, n=11 for FOXO4 DRI) were analyzed for total body weight before and after Doxorubicin-exposure followed by treatment with PBS or FOXO4 DRI. […]
Our senescence-detection model makes use of a construct in which the promoter of p16^ink4a drives a so-called trimodality reporter (3MR) referred to as p16::3MR. […] RLUC and RFP allow visualization of senescent cells in real-time through bioluminescence and fluorescence, respectively. […] On day 0, p16::3MR mice (Demaria et al., Developmental Cell, 31:6 p. 722-733 (2014)) including the Supplemental Experimental procedures) were i.p. injected with 10 mg/kg Doxorubicin and RLUC activity as measure of senescence was determined on the indicated timepoints. […]

Data set [4] concerns Doxorubicin-treated mice. The experiment in a line: Doxorubicin-treated mice: liver sections, body weight, plasma ASAT and Amylase. The format is in vivo. Here is the method: IMR90 cells were exposed twice to 0.5 μM Doxorubicin with one day in between. SA-β-GAL activity was determined 7 days later. […] Mice were i.p. injected with 10 mg/kg Doxorubicin and analyzed for RLUC on the indicated time-points. Changes in RLUC intensity for 5 animals are plotted for the indicated timepoints after injection. […] Mice treated as indicated in FIG. 4F were analyzed for Bioluminescence. […] Liver sections from the experiment in FIG. 4I were stained for IL-6. […] The ratio was plotted. […] Experiment as in FIG. 4H. n=3 animals per group.

Peptide text beside a SMILES is read from it. * marks the point of attachment. Cbz = O=C(OCc1ccccc1)*; CH2F = FC*

For the molecule `CN(C)CC[C@H](CSc1ccccc1)Nc1ccc(S(=O)(=O)NC(=O)c2ccc(N3CCN(Cc4ccccc4-c4ccc(Cl)cc4)CC3)cc2)cc1[N+](=O)[O-]` [ABT-737], in data set [1], the “toxicity to non-senescent cells” value is listed as “proved to be toxic to non-senescent cells”. In data set [1] (3× at ⅓, 3 days in between, senescence by IR), the “killing/clearing of senescent cells” value is listed as “only showed limited effectiveness on killing senescent cells”.
With `C[C@]12CCC(=O)C=C1CC[C@@H]1[C@@H]2[C@@H](O)C[C@@]2(C)[C@H]1CC[C@]2(O)C(=O)CO` [Cortisol], the “effect on effectiveness of FOXO4 DRI in lowering senescent cell viability” value in data set [1] is listed as “reduce the effectiveness of FOXO4 DRI in lowering senescent cell viability”.
Consider `COc1cccc2c1C(=O)c1c(O)c3c(c(O)c1C2=O)C[C@@](O)(C(=O)CO)C[C@@H]3O[C@H]1C[C@H](N)[C@H](O)[C@H](C)O1` [Doxorubicin], for which the SA-β-GAL expression entry in data set [2] (IMR90, twice 0.5 μM, 7 days later) is listed as “induces SA-β-GAL expression in IMR90 cells in vitro”. Moreover, in data set [2] (IMR90 in vitro), the “IL-6 (SASP marker)” value was “induces IL-6, indicative of elevated SASP”; the “expression of p16^ink4a and FOXO4” value is “induces expression of p 16^ink4a and FOXO4 in IMR90 in vitro”. Also, the “induction of senescence in vivo (RLUC)” value in data set [3] (10 mg/kg i.p., p16::3MR mice) is “induces p16^ink4a-mediated senescence in vivo”. Moreover, in data set [4] (mouse, in vivo, ip, 10 mg/kg), the “organ toxicity (liver, pancreas)” value is reported as “caused organ toxicity”. Moreover, the total body weight result in data set [4] (two doses 10 mg/kg i.p., mice) is on record as “causes a drop in body weight”.
As for `CC(C)[C@H](NC(=O)c1ccc2ccccc2n1)C(=O)N[C@@H](CC(=O)O)C(=O)COc1c(F)cccc1F` [QVD-OPH], the “effect of pan-caspase inhibitor on the FOXO4 DRI effect on senescent cell viability” value in data set [1] is “potently blocked the effect of FOXO4 DRI to reduce senescent cell viability”.
With `O=c1c(O)c(-c2ccc(O)c(O)c2)oc2cc(O)cc(O)c12` [Quesrcetin], the “clearing of senescent IMR90, viability senescent vs non-senescent” value in data set [1] (Quesrcetin alone) is “inefficent towards clearing senescent IMR90”.
Take `COc1cc(Nc2ncc(F)c(Nc3ccc4c(n3)NC(=O)C(C)(C)O4)n2)cc(OC)c1OC` [R406, 6-(5-fluoro-2-(3,4,5-trimethoxyphenylamino)pyrimidin-4-ylamino)-2,2-dimethyl-2H-pyrido[3,2-b][1,4] oxazin-3 (4H)-one benzenesulfonate]: the “% viability over Mock, senescent and non-senescent IMR90” value in data set [1] (16, 32, 64 to 128 nM, 6 days) was “selectively reduces senescent cell viability”. Further, the “SA-beta-GAL deposits in kidneys” value in data set [3] (Doxorubicin 10 mg/kg i.p. day 0, once daily i.v. day 11-14) was “reduced SA-beta-GAL deposits in kidneys”. Besides, in data set [3] (Doxorubicin 10 mg/kg i.p. day 0, once daily i.v. day 11-14, imaging day 11 and day 21), the “Doxorubicin-induced senescence in vivo (bioluminescence)” value was “repress Doxorubicin-induced senescence in vivo”.
On to `COC(=O)C[C@H](NC(=O)[C@H](C)NC(=O)[C@@H](NC(=O)OCc1ccccc1)C(C)C)C(=O)CF` [ZVAD-FMK] (Cbz-Val-Ala-Asp(OMe)-CH2F), for which the “effect of pan-caspase inhibitor on the FOXO4 DRI effect on senescent cell viability” value in data set [1] was “potently blocked the effect of FOXO4 DRI to reduce senescent cell viability”.
Take “IL-1RA: IL-1α Receptor Antagonist, which blocks IL-1α/β signaling”: the “effect of pretreatment on effectiveness of FOXO4 DRI for killing senescent cells” value in data set [1] (pretreated once daily for two days, FOXO4 DRI 12.5 μM) is on record as “reduced the effectiveness of FOXO4 DRI”.
As for Lipopolysaccharide, the “effect on effectiveness of FOXO4 DRI in lowering senescent cell viability” value in data set [1] is reported as “improves it”.
